Experimental data as given in publication PMC7802075 (ACS Infectious Diseases, 2020).
Counter-ions that a name gives are not always drawn. Like-named read-outs stand apart in the source and are kept apart here. Where a SMILES comes first, the peptide text is derived from it.

Target: T1, LmjIPCS (inositol phosphorylceramide synthase from L. major) (Leishmania major, UniProt E9AFX2)
T1 sequence (E9AFX2 1-338): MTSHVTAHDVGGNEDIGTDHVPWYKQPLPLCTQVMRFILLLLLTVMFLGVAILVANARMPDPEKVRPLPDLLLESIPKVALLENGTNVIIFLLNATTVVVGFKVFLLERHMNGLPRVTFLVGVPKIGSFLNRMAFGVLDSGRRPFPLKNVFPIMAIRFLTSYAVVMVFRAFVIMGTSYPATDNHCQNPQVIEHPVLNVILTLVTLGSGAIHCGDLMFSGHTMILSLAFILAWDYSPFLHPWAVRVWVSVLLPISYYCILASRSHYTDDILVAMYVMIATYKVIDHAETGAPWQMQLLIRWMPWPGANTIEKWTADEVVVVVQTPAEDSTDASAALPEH
Test: biochemical
Assay type: biochemical
Parameters: inhibition: dose or concentration left out as unconfirmed
Conditions: for inhibition: read-out: inhibition LmjIPCS; for inhibition at 20000 µM: read-out: 20mM inhibition LmjIPCS

[1] = screening of NINDS set, sheet Screen 1
[2] = NINDS set screen, single concentration printed as 20mM

O=C(CCCCCCCCCCCCC1CCCC1)Nc1ccc(S(=O)(=O)c2ccc(NC(=O)CCCCCCCCCCCCC3CCCC3)cc2)cc1 [CHAULMOSULFONE]
inhibition (NINDS set screen): 32%

O=C(O)c1ccc(S(=O)(=O)N(Cl)Cl)cc1 [HALAZONE]
inhibition [1]: 10%

Cc1ccc(S(=O)(=O)NC(=O)NN2CC3CCCC3C2)cc1 (stereo not shown) [GLICLAZIDE]
inhibition at 20000 µM: 14%

CO[C@@]1(NC(=O)C(C(=O)O)c2ccc(O)cc2)C(=O)N2C(C(=O)O)=C(CSc3nnnn3C)CO[C@@H]21 (stereo partly shown) [MOXALACTAM]
inhibition at 20000 µM: 10%

COc1ccc(C(=O)CC(=O)c2ccc(C(C)(C)C)cc2)cc1 [AVOBENZONE]
inhibition at 20000 µM: 0.941%

CC1=C(CC(=O)O)c2cc(F)ccc2/C1=C\c1ccc([S+](C)[O-])cc1 (stereo not shown)
inhibition: 12%

O=C1c2ccccc2C(=O)c2c(O)c(O)cc(O)c21 [PURPURIN]
20mM inhibition LmjIPCS: 35%

COc1ccccc1OCC(O)CO (stereo not shown) [GUAIFENESIN]
inhibition at 20000 µM: -0.357%

C[C@H]1c2cccc(O)c2C(=O)C2=C(O)[C@]3(O)C(=O)C(C(N)=O)=C(O)[C@@H](N(C)C)[C@@H]3[C@@H](O)[C@@H]21 [DOXYCYCLINE]
inhibition (NINDS set screen): 30%

C[C@]12C=CC(=O)C=C1CC[C@@H]1[C@@H]2C(=O)C[C@@]2(C)[C@H]1CC[C@]2(O)C(=O)CO [PREDNISONE]
inhibition: -4%

COc1ccc(C(=O)c2ccccc2O)c(O)c1 [DIOXYBENZONE]
inhibition: 11%

COc1ccc(C(CN(C)C)C2(O)CCCCC2)cc1 (stereo not shown) [VENLAFAXINE]
inhibition at 20000 µM: 26%

O=C(O)c1cccnc1C(=O)O [QUINOLINIC ACID]
inhibition at 20000 µM: 5.51%

Cc1nc(C)c(Cl)c(O)c1Cl [CLOPIDOL]
inhibition [1]: 7%

CC(C)[C@H]1CC[C@H](C(=O)N[C@H](Cc2ccccc2)C(=O)O)CC1 [NATEGLINIDE]
inhibition [1]: 7%

CC[C@@H](C(=O)O)[C@@H]1O[C@@H]([C@@H](C)[C@H](O)[C@H](C)C(=O)[C@H](CC)[C@H]2O[C@]3(C=C[C@@H](O)[C@]4(CC[C@@](C)([C@H]5CC[C@](O)(CC)[C@H](C)O5)O4)O3)[C@H](C)C[C@@H]2C)[C@@H](C)C[C@@H]1C [NARASIN]
inhibition at 20000 µM: -0.161%

CC(=O)CCCCn1c(=O)c2c(ncn2C)n(C)c1=O [PENTOXIFYLLINE]
inhibition: 5.62%

CC(Cc1cccc(C(F)(F)F)c1)NCCOC(=O)c1ccccc1 (stereo not shown) [BENFLUOREX]
20mM inhibition LmjIPCS: 65%

CC1(C)S[C@@H]2[C@H](N3C(=O)[C@@H](c4ccccc4)NC3(C)C)C(=O)N2[C@H]1C(=O)O [HETACILLIN]
inhibition [1]: 2%

Cc1cc(C(C)(C)CC(C)(C)C)ccc1OCCOCC[N+](C)(C)Cc1ccccc1.[Cl-] [METHYLBENZETHONIUM CHLORIDE]
20mM inhibition LmjIPCS (NINDS set screen, compound at 20mM (so in the source)): 12%

CC(=O)OCC(=O)[C@@]1(O)CC[C@H]2[C@@H]3CCC4=CC(=O)CC[C@]4(C)[C@H]3[C@@H](O)C[C@@]21C [HYDROCORTISONE ACETATE]
inhibition at 20000 µM: 7%

NCC(O)CC(=O)O (stereo not shown) [AMINOHYDROXYBUTYRIC ACID]
20mM inhibition LmjIPCS: 4%

O=[N+]([O-])c1cc(O)c(O)c([N+](=O)[O-])c1 [3,5-DINITROCATECHOL]
20mM inhibition LmjIPCS: 8%

CN(C)c1nc(N(C)C)nc(N(C)C)n1 [ALTRETAMINE]
inhibition at 20000 µM: 4%

CC1(C)[C@H]2CC[C@@]1(C)C(=O)C2 [1R-CAMPHOR]
20mM inhibition LmjIPCS [2]: 46%

NCCCCCCNS(=O)(=O)c1cccc2c(Cl)cccc12
20mM inhibition LmjIPCS: 59%

O=c1[nH]c2cc(Cl)c(Cl)cc2[nH]c1=O [2,3-DIHYDROXY-6,7-DICHLOROQUINOXALINE]
inhibition: 4%

CSc1ccc2c(c1)C(N1CCN(C)CC1)Cc1ccccc1S2 (stereo not shown) [METHIOTHEPIN]
20mM inhibition LmjIPCS [2]: 55%

COC(=O)C1=CCCN(C)C1 [ARECOLINE]
inhibition at 20000 µM: -3.74%

c1ccc([C@H]2CN3CCSC3=N2)cc1 [LEVAMISOLE]
inhibition at 20000 µM: 2.52%

CCN(CC)CCNC(=O)c1ccc(N)cc1 [PROCAINAMIDE]
inhibition: 19%

CC(C)(S)[C@@H](N)C(=O)O [PENICILLAMINE]
inhibition at 20000 µM: 20%

O=C(O)c1cc(=O)c2ccccc2[nH]1 [KYNURENIC ACID]
inhibition at 20000 µM: 6%

C=C[C@@]1(C)CC(=O)[C@]2(O)[C@@]3(C)[C@@H](O)CCC(C)(C)[C@@H]3[C@H](O)[C@H](OC(C)=O)[C@@]2(C)O1 [COLFORSIN]
20mM inhibition LmjIPCS [2]: 51%

CC[C@@H](CO)NC(=O)[C@@H]1C=C2c3cccc4[nH]cc(c34)C[C@H]2N(C)C1 [METHYLERGONOVINE]
20mM inhibition LmjIPCS: 35%

CC(C(=O)O)c1cccc(Oc2ccccc2)c1 (stereo not shown) [FENOPROFEN]
inhibition at 20000 µM: 6%

COc1c2ccoc2cc2oc(=O)ccc12 [BERGAPTEN]
inhibition: 17%

Cc1scc2c1N(C(=O)CN1CCN(C)CC1)c1ccccc1NC2=O [TELENZEPINE]
20mM inhibition LmjIPCS: 35%

CC[N+](CC)(CC)CCOc1cccc(OCC[N+](CC)(CC)CC)c1OCC[N+](CC)(CC)CC [GALLAMINE TRIETHIODIDE]
inhibition at 20000 µM: -1.76%

CC(C(=O)O)c1ccc(C(=O)c2cccs2)cc1 (stereo not shown) [SUPROFEN]
inhibition at 20000 µM: 5%

Nc1ccn([C@@H]2O[C@H](CO)[C@@H](O)[C@@H]2O)c(=O)n1 [CYTARABINE]
inhibition: -1.69%

CO/N=C(\C(=O)N[C@@H]1C(=O)N2C(C(=O)O)=C(COC(C)=O)CS[C@H]12)c1csc(N)n1 [CEFOTAXIME]
20mM inhibition LmjIPCS: 44%

CCOC(=O)OC(C)OC(=O)[C@@H]1N2C(=O)[C@@H](NC(=O)[C@H](N)c3ccccc3)[C@H]2SC1(C)C (stereo partly shown) [BACAMPICILLIN]
20mM inhibition LmjIPCS: 48%

CC[C@H]1OC(=O)[C@H](C)[C@@H](O[C@H]2C[C@@](C)(OC)[C@@H](O)[C@H](C)O2)[C@H](C)[C@@H](O[C@@H]2O[C@H](C)C[C@H](N(C)C)[C@H]2O)[C@](C)(O)C[C@@H](C)/C(=N\OCOCCOC)[C@H](C)[C@@H](O)[C@]1(C)O [ROXITHROMYCIN]
20mM inhibition LmjIPCS [2]: 59%

Nc1nc2c(c(=O)[nH]1)N(C=O)C(CNc1ccc(C(=O)N[C@@H](CCC(=O)O)C(=O)O)cc1)CN2 (stereo partly shown) [LEUCOVORIN]
inhibition (NINDS set screen): 17%

Cc1ccccc1OCC(O)CO (stereo not shown) [MEPHENESIN]
inhibition [1]: 3.35%

CCN(CC)C(=S)SSC(=S)N(CC)CC
inhibition at 20000 µM: 16%

CC(C)C[C@H](NC(=O)CN)C(=O)N[C@@H](Cc1ccccc1)C(=O)O (H-Gly-Leu-Phe-OH)
inhibition at 20000 µM: 11%

CC(=O)OCC(=O)[C@@]12OC3(CCCC3)O[C@@H]1C[C@H]1[C@@H]3CCC4=CC(=O)C=C[C@]4(C)[C@@]3(F)[C@@H](O)C[C@@]12C [AMCINONIDE]
inhibition at 20000 µM: 11%

C[C@]12CCC3c4ccc(OS(=O)(=O)[O-])cc4CCC3C1CC[C@H]2O.[Na+] (stereo partly shown) [ESTRADIOL-3-SULFATE, SODIUM SALT]
20mM inhibition LmjIPCS: 5.4%

CC(C(=O)O)c1ccc(-c2ccccc2)c(F)c1 (stereo not shown) [FLURBIPROFEN]
inhibition: 4%

COC(=O)[C@H](Cc1ccccc1)NC(=O)[C@@H](N)CC(=O)O (H-Asp-Phe-OMe)
inhibition [1]: 10%

CC1(C)S[C@@H]2[C@H](NC(=O)[C@H](N)c3ccc(O)cc3)C(=O)N2[C@H]1C(=O)O [AMOXICILLIN]
20mM inhibition LmjIPCS: 41%

C[C@]12CCC(=O)C=C1C=C[C@@H]1[C@@H]2CC[C@@]2(C)[C@H]1CC[C@@]21CCC(=O)O1 [CANRENONE]
inhibition at 20000 µM: 12%

C=C(C)[C@@H]1[C@H]2OC(=O)[C@@H]1[C@]1(O)C[C@H]3O[C@]34C(=O)O[C@H]2[C@]14C [PICROTOXININ]
inhibition at 20000 µM: 13%

CC1=C(/C=C/C(C)=C/C=C/C(C)=C/CO)C(C)(C)CCC1 [RETINOL]
inhibition (NINDS set screen): 21%

CN[C@H](CC(C)C)C(=O)N[C@H]1C(=O)N[C@@H](CC(N)=O)C(=O)N[C@H]2C(=O)N[C@H]3C(=O)N[C@H](C(=O)N[C@H](C(=O)O)c4cc(O)cc(O)c4-c4cc3ccc4O)[C@H](O)c3ccc(c(Cl)c3)Oc3cc2cc(c3O[C@@H]2O[C@H](CO)[C@@H](O)[C@H](O)[C@H]2O[C@H]2C[C@](C)(N)[C@H](O)[C@H](C)O2)Oc2ccc(cc2Cl)[C@H]1O [VANCOMYCIN]
inhibition at 20000 µM: 31%

CN(C)CCc1c[nH]c2ccc(C[C@H]3COC(=O)N3)cc12 [ZOLMITRIPTAN]
20mM inhibition LmjIPCS: 44%

CC[C@H](C)C(=O)O[C@H]1C[C@@H](C)C=C2C=C[C@H](C)[C@H](CC[C@@H]3C[C@@H](O)CC(=O)O3)[C@H]21 [LOVASTATIN]
20mM inhibition LmjIPCS: 41%

CO[C@@]1(NC(=O)Cc2cccs2)C(=O)N2C(C(=O)O)=C(COC(N)=O)CS[C@@H]21 [CEFOXITIN]
inhibition at 20000 µM: 3.72%

CCC[C@H](N[C@@H](C)C(=O)N1[C@H](C(=O)O)C[C@@H]2CCCC[C@@H]21)C(=O)OCC [PERINDOPRIL]
inhibition at 20000 µM: 2%

O=C1C(O)=C([C@H]2CC[C@H](c3ccc(Cl)cc3)CC2)C(=O)c2ccccc21 [ATOVAQUONE]
20mM inhibition LmjIPCS [2]: 46%

O=C(O)c1cn(C2CC2)c2cc(N3CCNCC3)c(F)cc2c1=O [CIPROFLOXACIN]
inhibition at 20000 µM: 3%

CC(C)(C)NC[C@H](O)COc1nsnc1N1CCOCC1 [TIMOLOL]
inhibition: 22%

CN(C)CCOC(c1ccc(Cl)cc1)c1ccccn1 (stereo not shown) [CARBINOXAMINE]
20mM inhibition LmjIPCS [2]: 36%

NCC(CC(=O)O)c1ccc(Cl)cc1 (stereo not shown) [BACLOFEN]
20mM inhibition LmjIPCS: 50%

CCCCCC1C(=O)CCC1CC(=O)O (stereo not shown) [DIHYDROJASMONIC ACID]
inhibition at 20000 µM: 20%

CC(=O)OCC(=O)[C@@]1(O)CC[C@H]2[C@@H]3CCC4=CC(=O)CC[C@]4(C)[C@H]3C(=O)C[C@@]21C [CORTISONE ACETATE]
20mM inhibition LmjIPCS: 62%

NCC(O)c1ccc(O)cc1 (stereo not shown) [OCTOPAMINE HYDROCHLORIDE]
inhibition (NINDS set screen): 33%

COc1cc(C2Oc3cc([C@H]4Oc5cc(O)cc(O)c5C(=O)[C@@H]4O)ccc3OC2CO)ccc1O (stereo partly shown) [SILIBININ]
inhibition at 20000 µM: 2.14%
